Data reported in patent US20190274303A1, “USE OF A DIFLUORO-(2-HYDROXYPROPYL)PYRIDINE COMPOUND AS A FUNGICIDE FOR CONTROL OF PHYTOPATHOGENIC FUNGI OF BARLEY” (Dow AgroSciences LLC, priority 2016, published 2019).

Experiments:
Assay type in all cases: in vivo
[1] = test system: Pyrenophora teres (PYRNTE); assay: Field assessment of net blotch of barley; settings: for Percent Control PYRNTE: based on AUDPC, barley, field
Protocol: Field Assessment of Pyrenophora teres (PYRNTE) in Barley:
A fungicidal treatment containing Compound I was assessed against net blotch of barley (PYRNTE) in two separate field trials. In each trial, fungicidal treatments of Compound I were applied using two separate adjuvant systems. In the first system, an EC formulation of compound I was tank mixed with Agnique BP-420 (50%) at an active:adjuvant ratio of 1:2. The second adjuvant system was an SC formulation of Compound I tank mixed with Agnique BP-420 EW (38.5%) at an active:adjuvant ratio of 1:2 and Agnique FOH TDA-9 (30% w/w) applied at 0.33% V/V. Both the EC and SC formulation was sprayed on barley plants at rates of 25, 50, 75, 100, 150, 200 and 250 grams active ingredient per hectare (g ai/ha). In the first trial, fungicidal treatments of Compound I were applied at B39 (early curative, 1% infection on leaf 1) growth stage of winter barley (HORVW, Lomerit variety) under natural infection of PYRNTE. The treatment was part of an experimental trial designed as a randomized complete block with four replications. In the second trial, fungicidal treatments of Compound I were applied at B37 (protectant, 1% infection on leaf 4) growth stage of spring barley (HORVS, Scarlett variety) under natural infection of PYRNTE. The treatment was part of an experimental trial designed as a randomized complete block with four replications.
(§1) Disease severity was recorded as a percentage of visual diseased foliage on whole plot. Net blotch of barley infection was recorded following EPPO PP1/26 guideline prescriptions. Area under the disease progress curve (AUDPC) was calculated for each plot using the sets of recorded severity data. Relative AUDPC (% control based on AUDPC) was calculated as percent of the nontreated control.
(§2) In each case of the following Tables, the rating scale of percent control based on AUDPC is as follows: […]

[2] = test system: Rhyncosporium secalis (RHYNSE); assay: Field assessment of barley leaf scald, Trial 2 (EC and SC formulations); settings: based on AUDPC, winter barley
Text: Trial 2: Fungicidal treatments of Compound I were applied using two separate adjuvant systems. In the first system, an EC formulation of compound I was tank mixed with Agnique BP-420 (50%) at an active:adjuvant ratio of 1:2. The second adjuvant system was an SC formulation of Compound I tank mixed with Agnique BP-420 EW (38.5%) at an active:adjuvant ratio of 1:2 and Agnique FOH TDA-9 (30% w/w) applied at 0.33% V/V. Both the EC and SC formulation was sprayed on barley plants at rates of 25, 50, 75, 100, 150, 200 and 250 grams active ingredient per hectare (g ai/ha). Fungicidal treatments were applied at B39 (early curative, 1% infection on leaf 1) growth stage of winter barley (HORVW, Maris Otter variety) under natural infection of RHYNSE. The treatment was part of an experimental trial designed as a randomized complete block with four replications.
as §1, with “Barley leaf scald” for “Net blotch of barley”
as §2

[3] = test system: Rhyncosporium secalis (RHYNSE); assay: Field assessment of barley leaf scald, Trial 1 (EC formulation alone or with adjuvants); settings: for % Control RHYNSE: based on AUDPC, winter barley, field, EC
Protocol: Field assessment of Rhyncosporium secalis (RHYNSE) in barley:
Trial 1: A fungicidal treatment containing Compound I was assessed against barley scald (RHYNSE) in two separate field trials. In the first trial, a fungicidal treatment containing an EC formulation of compound I by itself and in combination with two separate adjuvants was sprayed on barley plants at rates of 50, 100 and 150 grams active ingredient per hectare (g ai/ha). Fungicidal treatments were applied at B47-51 (curative, 3% infection on leaf 2) growth stage of winter barley (HORVW, Lomerit variety) under natural infection of RHYNSE. The treatment was part of an experimental trial designed as a randomized complete block with four replications and a plot of approximately 2×3 m. Compound I was applied at water volume of 200 L/ha, using a backpack precision plot sprayer (BICYCAIR, Flat Fan Air Assisted Nozle) and pressurized at 220 kPa.
as §1, with “Barley leaf scald infection was assessed several times during the growing season with a final assessment 39 days after application” for “Net blotch”, “compound I. The disease” for “barley”
as §2

[4] = 25 g ai/ha, EC + Agnique BP-420
[5] = 25 g ai/ha, SC + Agnique BP-420 EW and Agnique FOH TDA-9
[6] = 50 g ai/ha, EC + Agnique BP-420
[7] = 50 g ai/ha, SC + Agnique BP-420 EW and Agnique FOH TDA-9
[8] = 75 g ai/ha, EC + Agnique BP-420
[9] = 75 g ai/ha, SC + Agnique BP-420 EW and Agnique FOH TDA-9
[10] = 100 g ai/ha, EC + Agnique BP-420
[11] = 100 g ai/ha, SC + Agnique BP-420 EW and Agnique FOH TDA-9
[12] = 150 g ai/ha, EC + Agnique BP-420
[13] = 150 g ai/ha, SC + Agnique BP-420 EW and Agnique FOH TDA-9
[14] = 200 g ai/ha, EC + Agnique BP-420
[15] = 200 g ai/ha, SC + Agnique BP-420 EW and Agnique FOH TDA-9
[16] = 250 g ai/ha, EC + Agnique BP-420
[17] = 250 g ai/ha, SC + Agnique BP-420 EW and Agnique FOH TDA-9

For `N#Cc1ccc(Oc2ccc(C(F)(F)C(O)(Cn3ncnc3S)c3ccc(F)cc3F)nc2)cc1` (stereo not drawn) [Compound I, 4-((6-(2-(2,4-difluorophenyl)-1,1-difluoro-2-hydroxy-3-(5-mercapto-1H-1,2,4-triazol-1-yl)propyl)pyridin-3-yl)oxy)benzonitrile], the “Percent Control PYRNTE” value [1, 4] was “D (1-25)”, the “Percent Control PYRNTE” value [1, 5] was “D (1-25)” and the “Percent Control PYRNTE” value [1, 6] was “D (1-25)”. For the same compound, the “Percent Control PYRNTE” value [1, 7] was “D (1-25)”, the “Percent Control PYRNTE” value [1, 8] was “D (1-25)” and the “Percent Control PYRNTE” value [1, 9] was “D (1-25)”. The “Percent Control PYRNTE” value [1, 10] was “D (1-25)”, the “Percent Control PYRNTE” value [1, 11] was “C (26-50)” and the “Percent Control PYRNTE” value [1, 12] was “C (26-50)”. For the same compound, the “Percent Control PYRNTE” value [1, 13] was “C (26-50)”, the “Percent Control PYRNTE” value [1, 14] was “C (26-50)” and the “Percent Control PYRNTE” value [1, 15] was “B (51-74)”. For the same compound, the “Percent Control PYRNTE” value [1, 16] was “B (51-74)”, the “Percent Control PYRNTE” value [1, 17] was “B (51-74)” and the “fungicidal effect on Pyrenophora teres” value ([1]; net blotch of barley, general statement) was “significant fungicidal effect”. The “Percent Control RHYNSE” value [2, 4] was “C (26-50)”, the “Percent Control RHYNSE” value [2, 5] was “C (26-50)” and the “Percent Control RHYNSE” value [2, 6] was “C (26-50)”. For the same compound, the “Percent Control RHYNSE” value [2, 7] was “C (26-50)”, the “Percent Control RHYNSE” value [2, 8] was “B (51-74)” and the “Percent Control RHYNSE” value [2, 9] was “C (26-50)”. The “Percent Control RHYNSE” value [2, 10] was “B (51-74)”, the “Percent Control RHYNSE” value [2, 11] was “C (26-50)” and the “Percent Control RHYNSE” value [2, 12] was “B (51-74)”. For the same compound, the “Percent Control RHYNSE” value [2, 13] was “B (51-74)”, the “Percent Control RHYNSE” value [2, 14] was “B (51-74)” and the “Percent Control RHYNSE” value [2, 15] was “B (51-74)”. The “Percent Control RHYNSE” value [2, 16] was “B (51-74)”, the “Percent Control RHYNSE” value [2, 17] was “B (51-74)” and the “% Control RHYNSE” value ([3]; 50 g ai/ha, Agnique BP-420 (50% w/w at 0.15% v/v)) was “C (26-50)”. The “% Control RHYNSE” value ([3]; 50 g ai/ha, Agnique BP-420 (50% w/w at 0.3% v/v)) was “B (51-74)”, the “% Control RHYNSE” value ([3]; 50 g ai/ha, Agnique SBO-10 (0.15% v/v)) was “C (26-50)” and the “% Control RHYNSE” value ([3]; 50 g ai/ha, adjuvant None) was “C (26-50)”. The “% Control RHYNSE” value ([3]; 100 g ai/ha, Agnique BP-420 (50% w/w at 0.15% v/v)) was “B (51-74)”, the “% Control RHYNSE” value ([3]; 100 g ai/ha, Agnique BP-420 (50% w/w at 0.3% v/v)) was “B (51-74)” and the “% Control RHYNSE” value ([3]; 100 g ai/ha, Agnique SBO-10 (0.15% v/v)) was “B (51-74)”. For the same compound, the “% Control RHYNSE” value ([3]; 100 g ai/ha, adjuvant None) was “C (26-50)”, the “% Control RHYNSE” value ([3]; 150 g ai/ha, Agnique BP-420 (50% w/w at 0.15% v/v)) was “B (51-74)” and the “% Control RHYNSE” value ([3]; 150 g ai/ha, Agnique BP-420 (50% w/w at 0.3% v/v)) was “B (51-74)”. For the same compound, the “% Control RHYNSE” value ([3]; 150 g ai/ha, Agnique SBO-10 (0.15% v/v)) was “B (51-74)”, the “% Control RHYNSE” value ([3]; 150 g ai/ha, adjuvant None) was “C (26-50)” and the “fungicidal effect on Rhyncosporium secalis” value ([3]; leaf scald of barley, general statement) was “significant fungicidal effect”.
